Results published in US20240059691A1 (KALVISTA PHARMACEUTICALS LIMITED, priority 2020, published 2024).

What was measured:
Human Factor XIIa = Human Factor XIIa (Homo sapiens (Human), UniProt P00748); assay: Determination of FXIIa inhibition (fluorogenic substrate H-DPro-Phe-Arg-AFC, IC50 assay); format: biochemical; settings: substrate H-DPro-Phe-Arg-AFC at Km, 25° C.; class scale A-G
In short: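 IC50 derived from % remaining activity, taken as the linear fluorescence rate over a 5 min read at 25° C. Substrate H-DPro-Phe-Arg-AFC was used at its Km (Michaelis-Menten) with human FXIIa and serial compound dilutions, 25° C.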

Plasma Kallikrein = Plasma Kallikrein (Homo sapiens (Human), UniProt P03952); assay: Determination of related protease inhibition: Plasma Kallikrein (fluorogenic substrate at Km); format: biochemical; settings: 25° C., read-out: IC50 (human PKal)
Method: Determination of Related Protease Inhibition
In vitro inhibition of related proteases was determined using an ([…] assay based on standard literature methods (see e.g. Shori et al., Biochem. Pharmacol., 1992, 43, 1209; Bouckaert et al., European Journal of Medicinal Chemistry 110 (2016) 181). Human serine protease enzymes Plasma Kallikrein, KLK1, FXa, Plasmin, Thrombin and Trypsin were assayed for enzymatic activity using an appropriate fluorogenic substrate at Km concentration, FXIa at fixed substrate concentration of 100 μM, and various concentrations of the test compound. Protease activity was measured by monitoring the accumulation of liberated fluorescence from the substrate over […]. The linear rate of fluorescence increase per minute was expressed as percentage (%) activity. IC50 values were calculated as the concentration of inhibitor giving 50% inhibition of the uninhibited enzyme activity (100%).

Sequence of Human Factor XIIa (P00748 373-615): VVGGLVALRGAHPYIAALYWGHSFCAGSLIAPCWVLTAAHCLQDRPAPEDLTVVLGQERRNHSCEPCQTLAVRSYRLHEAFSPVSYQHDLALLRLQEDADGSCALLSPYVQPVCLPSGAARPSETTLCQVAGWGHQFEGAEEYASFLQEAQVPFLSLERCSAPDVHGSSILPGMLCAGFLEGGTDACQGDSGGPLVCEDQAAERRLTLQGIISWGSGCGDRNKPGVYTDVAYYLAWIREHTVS
Sequence of Plasma Kallikrein (P03952 391-638): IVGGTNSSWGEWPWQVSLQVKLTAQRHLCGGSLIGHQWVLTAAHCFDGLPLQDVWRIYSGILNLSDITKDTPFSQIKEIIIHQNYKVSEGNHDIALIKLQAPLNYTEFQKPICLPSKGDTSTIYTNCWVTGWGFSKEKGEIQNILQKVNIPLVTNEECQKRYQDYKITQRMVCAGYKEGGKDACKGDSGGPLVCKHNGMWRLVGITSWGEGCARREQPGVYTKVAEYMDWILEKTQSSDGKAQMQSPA
Sequence of Plasma Kallikrein (P03952 20-390 partner): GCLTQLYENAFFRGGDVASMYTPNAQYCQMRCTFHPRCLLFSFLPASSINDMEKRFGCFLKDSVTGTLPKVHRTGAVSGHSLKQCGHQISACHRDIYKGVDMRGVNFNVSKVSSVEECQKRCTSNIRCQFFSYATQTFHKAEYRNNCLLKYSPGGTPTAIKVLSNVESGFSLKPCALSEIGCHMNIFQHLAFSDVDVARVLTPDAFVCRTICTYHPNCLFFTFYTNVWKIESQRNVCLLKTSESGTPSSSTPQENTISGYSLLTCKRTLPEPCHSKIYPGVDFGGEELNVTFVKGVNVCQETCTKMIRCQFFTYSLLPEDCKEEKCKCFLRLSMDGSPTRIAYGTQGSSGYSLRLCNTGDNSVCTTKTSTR

| SMILES | IC50 (Human Factor XIIa) [µM] | IC50 (Plasma Kallikrein) [µM] |
| --- | --- | --- |
| Nc1nccc2c(NCc3ccnc(OCC4CCn5ccnc5C4)c3)cccc12 (single isomer, unassigned) [Example 4430, (S*)-N5-((2-((5,6,7,8-tetrahydroimidazo[1,2-a]pyridin-7-yl)methoxy)pyridin-4-yl)methyl)isoquinoline-1,5-diamine] | 0.01 to 0.1 | > 4 |
| Nc1nccc2c(NCc3ccnc(OCC4CCn5ccnc5C4)c3)cccc12 (single isomer, unassigned) [Example 4431, (R*)-N5-((2-((5,6,7,8-tetrahydroimidazo[1,2-a]pyridin-7-yl)methoxy)pyridin-4-yl)methyl)isoquinoline-1,5-diamine] | 0.1 to 0.3 | > 4 |
| Nc1ncc(Cl)c2cc(NCc3ccnc(OCC4CCn5ccnc5C4)c3)ccc12 (single isomer, unassigned) [Example 4439, (R*)-4-chloro-N6-((2-((5,6,7,8-tetrahydroimidazo[1,2-a]pyridin-7-yl)methoxy)pyridin-4-yl)methyl)isoquinoline-1,6-diamine] | 0.1 to 0.3 | 10 to 40 |
| Cc1cn2c(n1)CC(COc1cc(CNc3ccc4c(N)ncc(Cl)c4c3)ccn1)CC2 (single isomer, unassigned) [Example 4442, (R*)-4-chloro-N6-((2-((2-methyl-5,6,7,8-tetrahydroimidazo[1,2-a]pyridin-7-yl)methoxy)pyridin-4-yl)methyl)isoquinoline-1,6-diamine] | 0.3 to 1 | 10 to 40 |
| Cc1cnc2n1CCC(COc1cc(CNc3cccc4c(N)nccc34)ccn1)C2 (single isomer, unassigned) [Example 4444, (S*)-N5-((2-((3-methyl-5,6,7,8-tetrahydroimidazo[1,2-a]pyridin-7-yl)methoxy)pyridin-4-yl)methyl)isoquinoline-1,5-diamine] | 0.1 to 0.3 | 3 to 10 |
| Cc1cnc2n1CCC(COc1cc(CNc3cccc4c(N)nccc34)ccn1)C2 (single isomer, unassigned) [Example 4445, (R*)-N5-((2-((3-methyl-5,6,7,8-tetrahydroimidazo[1,2-a]pyridin-7-yl)methoxy)pyridin-4-yl)methyl)isoquinoline-1,5-diamine] | 0.1 to 0.3 | 3 to 10 |
| Cc1cn2c(n1)CC(COc1cc(CNc3cccc4c(N)nccc34)ccn1)CC2 (single isomer, unassigned) [Example 4447, (R*)-N5-((2-((2-methyl-5,6,7,8-tetrahydroimidazo[1,2-a]pyridin-7-yl)methoxy)pyridin-4-yl)methyl)isoquinoline-1,5-diamine] | 0.3 to 1 | 3 to 10 |
| Nc1ncc(Cl)c2cc(NCc3ccnc(OCC4CCCn5ccnc54)c3)ccc12 (single isomer, unassigned) [Example 4450, (S*)-4-chloro-N6-((2-((5,6,7,8-tetrahydroimidazo[1,2-a]pyridin-8-yl)methoxy)pyridin-4-yl)methyl)isoquinoline-1,6-diamine] | 0.1 to 0.3 | 10 to 40 |
| Nc1ncc(Cl)c2cc(NCc3ccnc(OCC4CCCn5ccnc54)c3)ccc12 (single isomer, unassigned) [Example 4451, (R*)-4-chloro-N6-((2-((5,6,7,8-tetrahydroimidazo[1,2-a]pyridin-8-yl)methoxy)pyridin-4-yl)methyl)isoquinoline-1,6-diamine] | 0.3 to 1 | > 40 |
| CN1CCC(Oc2ccc(CNc3ccc4ccnc(N)c4c3)cc2)CC1 [Example 1003, N7-(4-((1-methylpiperidin-4-yl)oxy)benzyl)isoquinoline-1,7-diamine] | 3 to 10 | 10 to 40 |
| CN1CCC(Oc2ccc(CNc3cnc4[nH]cc(Cl)c4c3)cc2)CC1 [Example 1004, 3-Chloro-N-(4-((1-methylpiperidin-4-yl)oxy)benzyl)-1H-pyrrolo[2,3-b]pyridin-5-amine] | 10 to 40 | > 40 |
| CN1CCC(OCc2ccc(COc3ccc4c(N)nccc4c3)cc2)CC1 [Example 1011, 6-((4-(((1-Methylpiperidin-4-yl)oxy)methyl)benzyl)oxy)isoquinolin-1-amine] | 3 to 10 | 10 to 40 |
| Nc1nccc2c(NCc3cnc(NCCC(=O)N4CCCC4)nc3)cccc12 [Example 1039, 3-[(5-{[(1-aminoisoquinolin-5-yl)amino]methyl}pyrimidin-2-yl)amino]-1-(pyrrolidin-1-yl)propan-1-one] | 10 to 40 | > 40 |
| Nc1ncc(Cl)c2cc(NCc3cnc(NCCC(=O)N4CCCC4)nc3)ccc12 [Example 1040, 3-[(5-{[(1-amino-4-chloroisoquinolin-6-yl)amino]methyl}pyrimidin-2-yl)amino]-1-(pyrrolidin-1-yl)propan-1-one] | 10 to 40 | > 40 |
| Nc1nccc2c(NCc3cnc(OCC4CCn5ccnc5C4)nc3)cccc12 (centres unmarked) [Example 1042, 5-N-[(2-{5H,6H,7H,8H-imidazo[1,2-a]pyridin-7-ylmethoxy}pyrimidin-5-yl)methyl]isoquinoline-1,5-diamine] | 0.1 to 0.3 | > 4 |
| Nc1ncc(Cl)c2cc(NCc3cnc(NCC4CCn5ccnc5C4)nc3)ccc12 (centres unmarked) [Example 1043, 4-chloro-6-N-{[2-({5H,6H,7H,8H-imidazo[1,2-a]pyridin-7-ylmethyl}amino)pyrimidin-5-yl]methyl}isoquinoline-1,6-diamine] | 0.3 to 1 | 3 to 10 |
| Nc1ncc(Cl)c2cc(NCc3ccc(NCC4CCn5ccnc5C4)nc3)ccc12 (centres unmarked) [Example 1044, 4-Chloro-N6-[[6-(5,6,7,8-tetrahydroimidazo[1,2-a]pyridin-7-ylmethylamino)-3-pyridyl]methyl]isoquinoline-1,6-diamine] | 0.1 to 0.3 | 3 to 10 |
| Nc1nccc2c(NCc3ccc(OC4CCn5ccnc5C4)nc3)cccc12 (centres unmarked) [Example 1049, N5-[[6-(5,6,7,8-tetrahydroimidazo[1,2-a]pyridin-7-yloxy)-3-pyridyl]methyl]isoquinoline-1,5-diamine] | 0.3 to 1 | > 40 |
| Nc1ncc(Cl)c2cc(NCc3ccc(OC4CCn5ccnc5C4)nc3)ccc12 (centres unmarked) [Example 1050, 4-chloro-6-N-[(6-{5H,6H,7H,8H-imidazo[1,2-a]pyridin-7-yloxy}pyridin-3-yl)methyl]isoquinoline-1,6-diamine] | 1 to 3 | > 40 |
| Nc1ncc(Cl)c2cc(NCc3cnc(OCC4CCn5ccnc5C4)nc3)ccc12 (centres unmarked) [Example 1052, 4-Chloro-N6-[[2-(5,6,7,8-tetrahydroimidazo[1,2-a]pyridin-7-ylmethoxy)pyrimidin-5-yl]methyl]isoquinoline-1,6-diamine] | 0.3 to 1 | > 40 |
| Cc1cc(NCc2ccc(NCC3CCN(C)CC3)nc2)cc2ccncc12 [Example 1102, 8-methyl-N-((6-(((1-methylpiperidin-4-yl)methyl)amino)pyridin-3-yl)methyl)isoquinolin-6-amine] | 3 to 10 | 10 to 40 |
| COc1cc(NCc2ccc(NCC3CCN(C)CC3)nc2)cc2ccncc12 [Example 1103, 8-methoxy-N-((6-(((1-methylpiperidin-4-yl)methyl)amino)pyridin-3-yl)methyl)isoquinolin-6-amine] | 10 to 40 | 10 to 40 |
| Cc1n[nH]c2c1CCC2Nc1ccc(CNc2ccc3c(N)ncc(Cl)c3c2)cn1 (centres unmarked) [Example 1118, 4-chloro-6-N-{[6-({3-methyl-1H,4H,5H,6H-cyclopenta[c]pyrazol-6-yl}amino)pyridin-3-yl]methyl}isoquinoline-1,6-diamine] | 10 to 40 | > 40 |
| Cc1n[nH]c2c1CCC2Nc1ccc(CNc2cccc3c(N)nccc23)cn1 (centres unmarked) [Example 1119, N5-((6-((3-methyl-1,4,5,6-tetrahydrocyclopenta[c]pyrazol-6-yl)amino)pyridin-3-yl)methyl)isoquinoline-1,5-diamine] | 10 to 40 | 10 to 40 |
| Nc1ncc(Cl)c2cc(NCc3ccc(N4CCn5ccnc5C4)nc3)ccc12 [Example 1129, 4-chloro-6-N-[(6-{5H,6H,8H-imidazo[1,2-a]pyrazin-7-yl}pyridin-3-yl)methyl]isoquinoline-1,6-diamine] | 3 to 10 | > 40 |
| CC(C)(O)[C@@H]1CCN(c2ccc(CNc3cccc4c(N)nccc34)cn2)C1 [Example 1130, (R)-2-(1-(5-(((1-aminoisoquinolin-5-yl)amino)methyl)pyridin-2-yl)pyrrolidin-3-yl)propan-2-ol] | 3 to 10 | > 40 |
| CC(C)(O)[C@H]1CCN(c2ccc(CNc3cccc4c(N)nccc34)cn2)C1 [Example 1131, 2-[(3S)-1-[5-[[(1-Amino-5-isoquinolyl)amino]methyl]-2-pyridyl]pyrrolidin-3-yl]propan-2-ol] | 1 to 3 | 10 to 40 |
| Cc1nnc(-c2ccc(NCc3ccnc(OCC4CCN(C)CC4)c3)cc2)o1 [Example 4457, 4-(5-methyl-1,3,4-oxadiazol-2-yl)-N-((2-((1-methylpiperidin-4-yl)methoxy)pyridin-4-yl)methyl)aniline] | – | > 100 |
| CN1CCC(COc2cc(CNc3ccc(N(C)C)nn3)ccn2)CC1 [Example 4458, N3,N3-dimethyl-N6-((2-((1-methylpiperidin-4-yl)methoxy)pyridin-4-yl)methyl)pyridazine-3,6-diamine] | – | > 100 |
